{
  "source": "patent US20240210394A1",
  "about": "“MICROORGANISM CAPTURE FROM ANTIMICROBIAL-CONTAINING SOLUTION” (MOMENTUM BIOSCIENCE LIMITED, priority 2019, published 2024)",
  "key": {"[1]": {"system": "E. coli", "experiment": "Blood culture time to positivity (flip time), bead rescue vs no-rescue control", "assay_type": "cell-based", "conditions": "Meropenem 49 mg/L blood; for Flip time: Bead rescue; for Flip time in Days: Control (FA plus bottle)", "protocol": "(§1) Day 1: Prepare overnight culture of test organism in blood/broth medium (50:50 blood:broth) and incubate at 37° C. in a shaking incubator.\nDay 2: Prepare ten-fold serial dilution of overnight culture in blood/broth as required and incubate at 37° C. for 2 h for outgrowth.\nAdd 5 mL of spiked blood+beads (set 1) and 5 mL of spiked blood/Abx+beads (set 3) to blood culture bottles (BioMerieux SA culture bottle) using a vial adapter (West Pharmaceutical Services, Inc. PA, US).\nRemove the adaptor and incubate the blood culture bottles in the automated blood culture cabinet (BacT/ALERT BioMerieux) for up to 5 days.\n(§2) Record the “Flip” time of each bottle or bottle result at the end of 5 days incubation. The “Flip” time is when a bottle turns positive as determined by the automated blood culture cabinet, which records time to positivity.\n(§3) Day 1: Prepare overnight culture of test organism in blood/broth medium (50:50 blood:broth) and incubate at 37° C. (or 30° C. for C. neoformans) in a shaking incubator.\n(or 30° C. for C. neoformans) for 2 h for outgrowth. • Antibiotic added to whole blood (defibrinated horse blood) at required level • Whole blood as no-antibiotic control • Test dilution(s) of organism added to blood+antibiotic or blood only at 10 μL per mL of blood (sufficient prepared for experiment requirements) • 100 μL plate count sample taken (TO sample) • 2-hour incubation (static) at 37° C. (or 30° C. for C. neoformans) • 100 μL plate count sample taken (T2 sample) • 5 mL of spiked blood+abx or blood only added to blood culture bottle (using vial adapter) and incubation started (adapter removed) • 5 mL of spiked blood+abx or blood only (from same source) treated with Momentum Capture Beads as below: • 1. Capture Beads diluted in the relevant Capture Reagent—50 μL beads:700 μL capture reagent per clean-up • 2. 750 μL of diluted beads added to 50 mL conical centrifuge tube • 3. 5 mL of transfer medium added to tube • 4. 5 mL of spiked blood+abx or blood only added to tube • 5. […] Magnetise on V&P magnet for 10 min then remove supernatant • 7. Resuspend beads in 1 mL Detergent-free Wash Buffer (DWB) off magnet and transfer to 2 mL Eppendorf flip-top tube on DynaMag-2 magnet • 8. Magnetise for 3 min then remove supernatant • 9. Resuspend beads in 1 mL Detergent-free Wash Buffer (DWB) off magnet then replace on DynaMag-2 magnet • 10. Magnetise for 3 min then remove supernatant • 11. Resuspend beads in 1 mL DWB, add to new blood culture bottle (using vial adapter) and start incubation (adapter removed)\nMomentum Capture Beads diluted in the relevant Capture Reagent—50 μL beads:700 μL capture reagent per clean-up • 2. 750 μL of diluted beads added to 50 mL conical centrifuge tube • 3. 5 mL of transfer medium added to tube • 4. 5 mL of spiked blood+abx or blood only added to tube • 5. […] Magnetise on V&P magnet for 10 min then remove supernatant • 7. Resuspend beads in 1 mL Detergent-free Wash Buffer (DWB) off magnet and transfer to 2 mL Eppendorf flip-top tube on DynaMag-2 magnet • 8. Magnetise for 3 min then remove supernatant • 9. Resuspend beads in 1 mL Detergent-free Wash Buffer (DWB) off magnet then replace on DynaMag-2 magnet • 10. Magnetise for 3 min then remove supernatant • 11. Resuspend beads in 1 mL DWB, add to an unused blood culture bottle (BioMerieux FA+culture bottle) using vial adapter and start incubation (adapter removed)"}, "[2]": {"system": "Klebsiella pneumoniae", "experiment": "Blood culture time to positivity (flip time), bead rescue vs no-rescue control", "assay_type": "cell-based", "conditions": "Meropenem 49 mg/L blood; for Flip time: Bead rescue; for Flip time in Days: Control (FA plus bottle)", "protocol": "as §3\n(§4) (or 30° C. for C. neoformans) for 2 h for outgrowth. • Antibiotic added to whole blood (defibrinated horse blood) at required level • Whole blood as no-antibiotic control • Test dilution(s) of organism added to blood+antibiotic or blood only at 10 μL per mL of blood (sufficient prepared for experiment requirements) • 100 μL plate count sample taken (TO sample) • 2-hour incubation (static) at 37° C. (or 30° C. for C. neoformans) • 100 μL plate count sample taken (T2 sample) • 5 mL of spiked blood+abx or blood only added to blood culture bottle (using vial adapter) and incubation started (adapter removed) • 5 mL of spiked blood+abx or blood only (from same source) treated with Momentum Capture Beads as below: • 1. Capture Beads diluted in the relevant Capture Reagent—50 μL beads:700 μL capture reagent per clean-up • 2. 750 μL of diluted beads added to 50 mL conical centrifuge tube • 3. 5 mL of transfer medium added to tube • 4. 5 mL of spiked blood+abx or blood only added to tube • 5. Incubate on ITL TherMix (32.5° C./30 min/1000 rpm—ramped speed protocol) • 6. Magnetise on V&P magnet for 10 min then remove supernatant • 7. Resuspend beads in 1 mL Detergent-free Wash Buffer (DWB) off magnet and transfer to 2 mL Eppendorf flip-top tube on DynaMag-2 magnet • 8. Magnetise for 3 min then remove supernatant • 9. Resuspend beads in 1 mL Detergent-free Wash Buffer (DWB) off magnet then replace on DynaMag-2 magnet • 10. Magnetise for 3 min then remove supernatant • 11. Resuspend beads in 1 mL DWB, add to new blood culture bottle (using vial adapter) and start incubation (adapter removed)\nas §2, §1\n(§5) Momentum Capture Beads diluted in the relevant Capture Reagent—50 μL beads:700 μL capture reagent per clean-up • 2. 750 μL of diluted beads added to 50 mL conical centrifuge tube • 3. 5 mL of transfer medium added to tube • 4. 5 mL of spiked blood+abx or blood only added to tube • 5. Incubate on ITL TherMix (32.5° C./30 min/1000 rpm—ramped speed protocol) • 6. Magnetise on V&P magnet for 10 min then remove supernatant • 7. Resuspend beads in 1 mL Detergent-free Wash Buffer (DWB) off magnet and transfer to 2 mL Eppendorf flip-top tube on DynaMag-2 magnet • 8. Magnetise for 3 min then remove supernatant • 9. Resuspend beads in 1 mL Detergent-free Wash Buffer (DWB) off magnet then replace on DynaMag-2 magnet • 10. Magnetise for 3 min then remove supernatant • 11. Resuspend beads in 1 mL DWB, add to an unused blood culture bottle (BioMerieux FA+culture bottle) using vial adapter and start incubation (adapter removed)"}, "[3]": {"system": "Pseudomonas aeruginosa", "experiment": "Blood culture time to positivity (flip time), bead rescue vs no-rescue control", "assay_type": "cell-based", "conditions": "Meropenem 49 mg/L blood", "protocol": "as §3, §4, §2, §1, §5"}, "[4]": {"system": "E. coli", "conditions": "cited from earlier work"}, "[5]": {"system": "Klebsiella pneumoniae", "conditions": "K. pneumoniae; cited from earlier work"}, "[6]": {"system": "Pseudomonas aeruginosa", "conditions": "P. aeruginosa; cited from earlier work"}},
  "data": [
    {"smiles": "C[C@@H](O)[C@H]1C(=O)N2C(C(=O)O)=C(S[C@@H]3CN[C@H](C(=O)N(C)C)C3)[C@H](C)[C@H]12", "note": "[Meropenem]", "values": [
      {"measurement": "Flip time", "setting": "[1]; 900 cfu/5 mL blood", "result": 0.56, "unit": "days"},
      {"measurement": "Flip time", "setting": "[1]; 150000 cfu/5 mL blood", "result": 0.46, "unit": "days"},
      {"measurement": "Flip time", "setting": "[1]; 1500000 cfu/5 mL blood", "result": 0.43, "unit": "days"},
      {"measurement": "Flip time in Days", "setting": "[1]; 900 cfu/5 mL blood", "result": "Neg"},
      {"measurement": "Flip time in Days", "setting": "[1]; 150000 cfu/5 mL blood", "result": "Neg"},
      {"measurement": "Flip time in Days", "setting": "[1]; 1500000 cfu/5 mL blood", "result": "Neg"},
      {"measurement": "Flip time", "setting": "[2]; 125000 cfu/5 mL blood", "result": 0.43, "unit": "days"},
      {"measurement": "Flip time", "setting": "[2]; 1250000 cfu/5 mL blood", "result": 0.38, "unit": "days"},
      {"measurement": "Flip time in Days", "setting": "[2]; 125000 cfu/5 mL blood", "result": "Neg"},
      {"measurement": "Flip time in Days", "setting": "[2]; 1250000 cfu/5 mL blood", "result": "Neg"},
      {"measurement": "Flip time", "setting": "[3]; Bead rescue, 1250 cfu/5 mL blood", "result": 0.81, "unit": "days"},
      {"measurement": "Flip time", "setting": "[3]; Bead rescue, 200000 cfu/5 mL blood", "result": 0.54, "unit": "days"},
      {"measurement": "Flip time", "setting": "[3]; Bead rescue, 2000000 cfu/5 mL blood", "result": 0.46, "unit": "days"},
      {"measurement": "Flip time in Days", "setting": "[3]; Control (FA plus bottle), 1250 cfu/5 mL blood", "result": "Neg"},
      {"measurement": "Flip time", "setting": "[3]; Control (FA plus bottle), 200000 cfu/5 mL blood", "result": 0.9, "unit": "days"},
      {"measurement": "Flip time", "setting": "[3]; Control (FA plus bottle), 2000000 cfu/5 mL blood", "result": 0.81, "unit": "days"},
      {"measurement": "MIC", "setting": "[4]", "result": "≤1", "unit": "mg/L"},
      {"measurement": "MIC", "setting": "[5]", "result": "≤1", "unit": "mg/L"},
      {"measurement": "MIC", "setting": "[6]", "result": "≤1", "unit": "mg/L"}
    ]}
  ]
}
